# Measured values: patent US20230000849A1, “INHIBITION OF SMARCA2 FOR TREATMENT OF CANCER” (Epizyme, Inc., priority 2017, published 2023)
# Entries after “also recorded” stand apart in the source; their conditions may differ.
# Tests used:
# [1] = system: SMARCA4 wild-type or mutant cell lines; assay: Cell growth in SMARCA4 wild-type or mutant cell lines (FIG. 6B); format: cell-based; settings: SMARCA4-wt or mutant cell lines
# Excerpt: FIGS. 6A and 6B are a series of graphs illustrating antiproliferative effects of bromodomain inhibitor PFI-3.
# SMARCA2 = SMARCA2 (Homo sapiens, UniProt P51531); assay: SMARCA2 ATPase activity inhibition by known bromodomain inhibitors (HTS ADP-Glo bioluminescent format); format: biochemical; settings: read-out: % inh SMARCA2 at 10 nM
# Sequence of SMARCA2 (P51531 whole entry): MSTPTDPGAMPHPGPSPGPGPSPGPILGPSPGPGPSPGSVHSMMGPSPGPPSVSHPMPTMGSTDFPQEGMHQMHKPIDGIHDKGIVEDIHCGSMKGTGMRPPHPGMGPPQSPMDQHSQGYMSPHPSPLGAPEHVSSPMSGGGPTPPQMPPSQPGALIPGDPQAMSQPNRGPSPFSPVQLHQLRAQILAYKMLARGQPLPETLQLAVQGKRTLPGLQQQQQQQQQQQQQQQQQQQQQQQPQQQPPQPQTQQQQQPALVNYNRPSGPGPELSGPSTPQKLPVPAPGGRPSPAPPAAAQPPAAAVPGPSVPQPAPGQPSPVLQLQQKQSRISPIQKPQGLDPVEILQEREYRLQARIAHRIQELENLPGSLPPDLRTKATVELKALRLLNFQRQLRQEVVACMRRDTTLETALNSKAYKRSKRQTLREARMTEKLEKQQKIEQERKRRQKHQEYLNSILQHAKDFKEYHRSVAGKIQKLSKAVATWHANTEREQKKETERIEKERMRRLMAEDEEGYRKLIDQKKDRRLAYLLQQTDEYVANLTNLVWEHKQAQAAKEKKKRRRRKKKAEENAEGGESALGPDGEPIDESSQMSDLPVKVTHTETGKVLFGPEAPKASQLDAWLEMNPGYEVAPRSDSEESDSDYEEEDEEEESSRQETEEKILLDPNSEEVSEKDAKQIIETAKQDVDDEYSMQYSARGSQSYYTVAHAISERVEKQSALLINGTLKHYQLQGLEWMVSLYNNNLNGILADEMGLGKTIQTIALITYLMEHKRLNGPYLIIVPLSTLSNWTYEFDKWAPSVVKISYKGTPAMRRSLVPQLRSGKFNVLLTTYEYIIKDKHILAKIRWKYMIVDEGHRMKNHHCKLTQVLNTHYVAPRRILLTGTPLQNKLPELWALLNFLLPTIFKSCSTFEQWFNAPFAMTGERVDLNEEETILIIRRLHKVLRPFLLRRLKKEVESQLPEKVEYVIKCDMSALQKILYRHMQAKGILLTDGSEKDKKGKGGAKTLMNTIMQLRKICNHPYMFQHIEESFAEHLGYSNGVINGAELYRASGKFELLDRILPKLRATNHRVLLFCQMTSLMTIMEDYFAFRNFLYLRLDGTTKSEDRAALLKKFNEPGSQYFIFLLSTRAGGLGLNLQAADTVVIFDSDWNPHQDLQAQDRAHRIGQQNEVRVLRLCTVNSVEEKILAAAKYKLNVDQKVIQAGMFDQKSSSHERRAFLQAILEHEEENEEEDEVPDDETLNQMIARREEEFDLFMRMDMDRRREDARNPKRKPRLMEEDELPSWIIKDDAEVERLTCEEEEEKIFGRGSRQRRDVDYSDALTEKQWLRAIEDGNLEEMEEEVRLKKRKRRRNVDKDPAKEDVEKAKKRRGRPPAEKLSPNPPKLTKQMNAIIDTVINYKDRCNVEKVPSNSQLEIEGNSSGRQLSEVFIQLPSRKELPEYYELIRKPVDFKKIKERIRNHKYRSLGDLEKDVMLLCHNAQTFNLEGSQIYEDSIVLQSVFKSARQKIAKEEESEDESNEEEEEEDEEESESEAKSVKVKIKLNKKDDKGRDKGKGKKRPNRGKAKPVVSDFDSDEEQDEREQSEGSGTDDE
# Method: As such, the development of viable antagonists or inhibitors (i.e., ATPase inhibitors) requires methods of monitoring ATPase activity.
# The signal to background ratio, ATPase activity as a function of protein concentration, and the dependence of ATP activity on mononucleosome substrate were determined for the isolated full length SMARCA2 and SMARACA4 in a high throughput screening bioluminescent assay (HTS ADP-Glo™ format).
# SMACA2 = SMACA2 (Homo sapiens, UniProt P51531); assay: PFI-3 binding to SMARCA2 (FIG. 6A)
# Sequence of SMACA2 (P51531 whole entry): as above
smiles,measurement,setting,value
O=C(/C=C/N1C[C@H]2C[C@@H]1CN2c1ccccn1)c1ccccc1O [PFI3],effect on cell growth,[1],no functional effect; also recorded: does not impact cell growth
same,inhibition at 0.01 µM,SMARCA2,5%
same,binding affinity to SMARCA2,SMACA2,nanomolar affinity
